{
  "source": "patent US20040198794A1",
  "about": "“Ondansetron forms and processes of making the same” (priority 2003, published 2004)",
  "type_in_all_cases": "physicochemical",
  "key": {"[1]": {"experiment": "Storage stability of solid ondansetron forms"}, "[2]": {"experiment": "Solvent-induced conversion between forms by slurrying", "text": "It is sensitive to a solvent-induced conversion into a form II defined below by slurrying in some polar solvents, e.g. in methanol or water, while it is inert to the same slurrying or solvent treatment in non-polar solvents. […] Form II is resistant to a solvent-inducing conversion to form I at ambient temperature."}, "[3]": {"experiment": "Hydration of solid ondansetron base on exposure to humidity", "text": "After storage of the anhydrate form at humidity exceeding 10% RH, hydrates may be formed. A stable hydrated form comprise 1.3-1.5% of water, this corresponding to approximately 0.25 molar equivalent of water (a hemi-hemihydrate). Accordingly, another ondansetron form of the present invention is an ondansetron hydrate comprising ondansetron and water wherein the amount of water relative to ondansetron is within the range of 0.23-0.27 moles, more preferably 0.24-0.26 moles, per each one mole of ondansetron. Exposure of this or the anhydrated product to enhanced humidity (70% RH) results in a product having about 3% water content which corresponds to a hemihydrate (0.5 molar equivalent of water). Exposure to extreme humidity of about 90% or more leads to a monohydrate form of about 5% water. The most useful hydrated form of ondansetron base is the hemi-hemi hydrate as this is formed under most precipitation conditions and is stable. The above forms I or II are preferably hydrates containing 1.3-1.5% of water."}, "[4]": {"experiment": "Dissolution and release of microcrystalline ondansetron", "settings": "particle size smaller than 200 microns", "text": "It has been further discovered that ondansetron base having a particle size smaller than 200 microns (hereinafter “microcrystalline ondansetron”) is more suitable in making pharmaceutical formulations."}},
  "data": [
    {"compound": "Cc1nccn1CC1CCc2c(c3ccccc3n2C)C1=O", "note": "(stereo not shown) [form I]", "values": [
      {"measurement": "stability during storage", "setting": "[1]; storage at ambient and elevated temperatures", "result": "sufficiently stable"},
      {"measurement": "solvent-induced conversion into form II", "setting": "[2]; slurrying in some polar solvents, e.g. methanol or water", "result": "sensitive"},
      {"measurement": "solvent-induced conversion into form II", "setting": "[2]; slurrying or solvent treatment in non-polar solvents", "result": "inert"}
    ]},
    {"compound": "Cc1nccn1CC1CCc2c(c3ccccc3n2C)C1=O", "note": "(stereo not shown) [ondansetron base]", "values": [
      {"measurement": "water content after exposure to humidity", "setting": "[3]; enhanced humidity (70% RH), corresponds to a hemihydrate", "result": "about 3%"},
      {"measurement": "water content after exposure to humidity", "setting": "[3]; extreme humidity of about 90% or more, monohydrate form", "result": "about 5%"}
    ]},
    {"compound": "Cc1nccn1CC1CCc2c(c3ccccc3n2C)C1=O", "note": "(stereo not shown) [microcrystalline ondansetron]", "values": [
      {"measurement": "dissolution in liquid medium", "setting": "[4]; making liquid compositions", "result": "dissolves more rapidly"},
      {"measurement": "release from the tablet composition", "setting": "[4]", "result": "releases more rapidly"}
    ]},
    {"compound": "Cc1nccn1CC1CCc2c(c3ccccc3n2C)C1=O", "note": "(stereo not shown) [Form II]", "values": [
      {"measurement": "form conversion during storage", "setting": "[1]; prolonged storage at 40° C./75% relative humidity (RH)", "result": "partial conversion to Form I"},
      {"measurement": "stability during storage", "setting": "[1]; room temperature, stored in closed vial", "result": "stable"},
      {"measurement": "solvent-inducing conversion to form I", "setting": "[2]; ambient temperature", "result": "resistant"}
    ]}
  ]
}
